Laboratory results published in US7888363B2, “Viral polymerase inhibitors” (Boehringer Ingelheim International GmbH, priority 2003, dated 2011).

target: hepatitis C virus RNA dependant polymerase (NS5B) (Hepatitis C virus genotype 1b, UniProt P26663); assay: Inhibition of NS5B RNA dependent RNA polymerase activity; assay type: biochemical; details: Table 1; HCV NS5B polymerase
Protocol: A suitable assay is described in the examples.
Inhibition of NS5B RNA Dependent RNA Polymerase Activity
The compounds of the invention were tested for inhibitory activity against the hepatitis C virus RNA dependant polymerase (NS5B), according to protocol described in WO 03/010141

Sequence of hepatitis C virus RNA dependant polymerase (NS5B) (P26663 2420-3010): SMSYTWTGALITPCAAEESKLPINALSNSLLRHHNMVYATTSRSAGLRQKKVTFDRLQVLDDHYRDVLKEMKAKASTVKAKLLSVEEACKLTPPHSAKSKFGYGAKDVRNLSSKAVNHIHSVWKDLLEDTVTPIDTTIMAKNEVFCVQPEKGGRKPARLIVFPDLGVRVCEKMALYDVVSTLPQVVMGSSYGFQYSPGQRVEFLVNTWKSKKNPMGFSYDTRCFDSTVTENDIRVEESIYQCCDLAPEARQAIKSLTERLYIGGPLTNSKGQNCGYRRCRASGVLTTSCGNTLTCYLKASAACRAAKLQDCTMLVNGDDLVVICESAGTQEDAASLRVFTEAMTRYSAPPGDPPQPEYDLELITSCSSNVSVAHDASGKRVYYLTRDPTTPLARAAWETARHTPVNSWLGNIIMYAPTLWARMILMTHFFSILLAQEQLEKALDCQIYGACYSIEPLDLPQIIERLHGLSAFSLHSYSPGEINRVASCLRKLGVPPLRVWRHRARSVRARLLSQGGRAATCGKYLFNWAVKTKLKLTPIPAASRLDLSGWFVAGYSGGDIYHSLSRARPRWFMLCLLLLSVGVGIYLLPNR

Row | IC50 | Structure (SMILES)
1 | < 0.2 µM | NC(=O)[C@@H]1CCCN1C(=O)Cn1c(-c2ccoc2)c(C2CCCCC2)c2ccc(C(=O)O)cc21 [Example 1057]
2 | < 0.2 µM | O=C(O)c1ccc2c(C3CCCCC3)c(-c3ccoc3)n(CC(=O)N3CCC(C(=O)O)CC3)c2c1 [Example 1058]
3 | < 0.2 µM | O=C(Cn1c(-c2ccoc2)c(C2CCCCC2)c2ccc(C(=O)O)cc21)NNC(=O)c1ccncc1 [Example 1059]
4 | 0.2 to 1 µM | O=C(Cn1c(-c2ccoc2)c(C2CCCCC2)c2ccc(C(=O)O)cc21)Nc1ccccc1 [Example 1060]
5 | 0.2 to 1 µM | O=C(Cn1c(-c2ccoc2)c(C2CCCCC2)c2ccc(C(=O)O)cc21)Nc1ccc(C(=O)O)cc1 [Example 1061]
6 | 0.2 to 1 µM | CNC(=O)Cn1c(-c2ccoc2)c(C2CCCCC2)c2ccc(C(=O)O)cc21 [Example 1062]
7 | 0.2 to 1 µM | O=C(Cn1c(-c2ccoc2)c(C2CCCCC2)c2ccc(C(=O)O)cc21)NCc1ccccc1 [Example 1063]
8 | 1 to 10 µM | COc1ccc(CNC(=O)Cn2c(-c3ccoc3)c(C3CCCCC3)c3ccc(C(=O)O)cc32)cc1 [Example 1064]
9 | 0.2 to 1 µM | NC(=O)Cn1c(-c2ccoc2)c(C2CCCCC2)c2ccc(C(=O)O)cc21 [Example 1065]
10 | < 0.2 µM | O=C(O)c1ccc2c(C3CCCCC3)c(-c3ccoc3)n(CC(=O)N3CCC[C@H]3C(=O)O)c2c1 [Example 1066]
11 | < 0.2 µM | O=C(O)CNC(=O)Cn1c(-c2ccoc2)c(C2CCCCC2)c2ccc(C(=O)O)cc21 [Example 1067]
12 | < 0.2 µM | O=C(O)CNNC(=O)Cn1c(-c2ccoc2)c(C2CCCCC2)c2ccc(C(=O)O)cc21 [Example 1068]
13 | 0.2 to 1 µM | NS(=O)(=O)c1ccc(CNC(=O)Cn2c(-c3ccoc3)c(C3CCCCC3)c3ccc(C(=O)O)cc32)cc1 [Example 1069]
14 | 0.2 to 1 µM | O=C(Cn1c(-c2ccoc2)c(C2CCCCC2)c2ccc(C(=O)O)cc21)Nc1cccc(C(=O)O)c1 [Example 1070]
15 | 0.2 to 1 µM | O=C(O)/C=C/c1ccc(NC(=O)Cn2c(-c3ccoc3)c(C3CCCCC3)c3ccc(C(=O)O)cc32)cc1 [Example 1071]
16 | < 0.2 µM | CN(CC(=O)O)C(=O)Cn1c(-c2ccoc2)c(C2CCCCC2)c2ccc(C(=O)O)cc21 [Example 1072]
17 | < 0.2 µM | O=C(O)CCNC(=O)Cn1c(-c2ccoc2)c(C2CCCCC2)c2ccc(C(=O)O)cc21 [Example 1073]
18 | < 0.2 µM | O=C(O)CN1CCN(C(=O)Cn2c(-c3ccoc3)c(C3CCCCC3)c3ccc(C(=O)O)cc32)CC1 [Example 1074]
19 | < 0.2 µM | O=C(Cn1c(-c2ccoc2)c(C2CCCCC2)c2ccc(C(=O)O)cc21)NCc1ccc(C(=O)O)cc1 [Example 1075]
20 | < 0.2 µM | O=C(Cn1c(-c2ccoc2)c(C2CCCCC2)c2ccc(C(=O)O)cc21)NNC(=O)NC[C@H]1CC[C@H](C(=O)O)CC1 [Example 1076]
21 | < 0.2 µM | O=C(O)/C=C/c1ccc(NC(=O)[C@]2(NC(=O)Cn3c(-c4ccoc4)c(C4CCCCC4)c4ccc(C(=O)O)cc43)CCNC2)cc1 [Example 1077]
22 | < 0.2 µM | O=C(O)/C=C/c1ccc(NC(=O)[C@@]2(NC(=O)Cn3c(-c4ccoc4)c(C4CCCCC4)c4ccc(C(=O)O)cc43)CCNC2)cc1 [Example 1079]
23 | < 0.2 µM | O=C(O)/C=C/c1ccc(NC(=O)C2(NC(=O)Cn3c(-c4ccoc4)c(C4CCCCC4)c4ccc(C(=O)O)cc43)CCNCC2)cc1 [Example 1080]
24 | < 0.2 µM | O=C(Cn1c(-c2ccoc2)c(C2CCCCC2)c2ccc(C(=O)O)cc21)N[C@@H](Cc1c[nH]c2ccc(O)cc12)C(=O)O [Example 1081]
25 | < 0.2 µM | CN1CCN(C(=O)Cn2c(-c3ccccn3)c(C3CCCCC3)c3ccc(C(=O)O)cc32)CC1 [Example 1082]
26 | 0.2 to 1 µM | CC(C)(NC(=O)Cn1c(-c2ccccn2)c(C2CCCCC2)c2ccc(C(=O)O)cc21)C(=O)Nc1ccc(/C=C/C(=O)O)cc1 [Example 1083]
27 | 0.2 to 1 µM | O=C(O)c1ccc2c(C3CCCCC3)c(-c3ccccn3)n(CC(=O)N3CCCC3)c2c1 [Example 1084]
28 | 0.2 to 1 µM | O=C(O)c1ccc2c(C3CCCCC3)c(-c3ccccn3)n(CC(=O)N3CCCCC3)c2c1 [Example 1085]
